Counter-ions that a name gives are not always drawn.
Target: T1, 5HT2 receptors (Rattus norvegicus, UniProt P14842)
T1 construct: their external jugular veins and thoracic aortas dissected free of connective tissue; from tissue; host or cells: isolated external jugular vein of male Wistar rats
T1 sequence (P14842 whole entry): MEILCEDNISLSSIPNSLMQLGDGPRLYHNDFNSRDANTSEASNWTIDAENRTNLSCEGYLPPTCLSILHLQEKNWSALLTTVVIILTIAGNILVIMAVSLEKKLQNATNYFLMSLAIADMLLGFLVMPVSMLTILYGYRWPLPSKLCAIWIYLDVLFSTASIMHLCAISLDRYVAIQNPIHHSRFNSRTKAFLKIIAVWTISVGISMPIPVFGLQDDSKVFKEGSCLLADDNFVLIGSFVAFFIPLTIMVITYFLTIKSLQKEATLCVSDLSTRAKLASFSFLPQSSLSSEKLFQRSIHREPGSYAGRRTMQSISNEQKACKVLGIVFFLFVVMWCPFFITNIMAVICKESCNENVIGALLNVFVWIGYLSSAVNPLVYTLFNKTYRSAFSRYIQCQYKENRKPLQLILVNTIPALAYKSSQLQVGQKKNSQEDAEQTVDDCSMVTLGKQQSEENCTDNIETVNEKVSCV
Test: Apparent dissociation constants for 5HT2 receptors determined in the rat jugular vein (antagonism of contraction to serotonin)
Assay type: cell-based, rat (male Wistar)
Settings: antagonist incubated one hour, agonist serotonin, 37° C., read-out: -log KB (apparent dissociation constant, negative logarithm) (converted)
Description: An initial optimum resting force of 1 and 4 g was applied to the jugular vein and aorta, respectively. […] Exp. Ther., 205, 400 (1978). Alpha receptor antagonist activity was evaluated in the aorta.
For `CCN1C[C@H](C(=O)OC2CCCCC2)C[C@@H]2c3cccc4c3c(cn4C(C)C)C[C@H]21` [C2 H5, cyclohexyl, HCl, 1-Isopropyl-6-ethyl-8β-cyclohexyloxycarbonylergoline], the Kb was 15.5 nM.
For `CC(C)n1cc2c3c(cccc31)[C@H]1C[C@@H](C(=O)OC3CCC(=O)CC3)CN(C)[C@@H]1C2` [CH3,4-oxocyclohexyl, maleate, 4-Oxocyclohexyl 1-isopropyl-9,10-dihydrolysergate], the Kb was 0.0977 nM.
`CC(C)n1cc2c3c(cccc31)[C@H]1C[C@@H](C(=O)OC3CCCCC3)CN(C)[C@@H]1C2` [CH3, cyclohexyl, maleate, cyclohexyl 1-isopropyl-9,10-dihydrolysergate maleate] gave a Kb of 2.14 nM.
`CCCN1C[C@H](C(=O)OC2CCCCC2)C[C@@H]2c3cccc4c3c(cn4C(C)C)C[C@H]21` [n-C3 H7, cyclohexyl, HCl] gave a Kb of 85.1 nM.
For `CCCCN1C[C@H](C(=O)OC2CCCCC2)C[C@@H]2c3cccc4c3c(cn4C(C)C)C[C@H]21` [n-C4 H9, cyclohexyl, HCl, 1-Isopropyl-6-n-butyl-8β-cyclohexyloxycarbonyl ergoline hydrochloride], the Kb was 39.8 nM.

Tested on: 5HT2 receptors
Test: not given
Settings: mediated by 5HT2 receptors; Cohen I; cited from earlier work
In the case of `CC(O)C(C)OC(=O)[C@@H]1C[C@@H]2c3cccc4c3c(cn4C(C)C)C[C@H]2N(C)C1` (stereo partly drawn) [LY53857, 1-isopropyl-6-methyl-8β-(1-methyl-2-hydroxy)propoxycarbonyl-5R-ergoline], the “antagonism of vascular contraction to serotonin” value is listed as “potent antagonist”.
